Test results: the pKa sets of Baltruschat and Czodrowski (2020)

Settings: basic group
`CCCNCc1ccc(C)cc1` gave a pKa of 9.98. In the case of `Cc1ccccc1C(=NCCCCN(C)C)c1ccccc1C`, the pKa is reported as 8.8. For `CCn1c(=O)n(C)c2ccccc21`, the pKa was -3.7. Work on `Cc1cc2ncn([C@H]3OC[C@H](O)[C@H](O)[C@@H]3O)c2cc1C` yielded a pKa of 4.7. `Cc1c2ccncc2cc2c1[nH]c1cc[nH+]cc12` showed a pKa of 5.3. `O=C([O-])c1nccc2ccccc12` showed a pKa of 4.97. With `CN(C)CCC#N` the pKa was 7.01. Compound `OC[C@@H]1O[C@H](n2cnc3ccccc32)[C@@H](O)[C@H](O)[C@H]1O` has a pKa of 4.01. `[NH3+]CCCCc1ccccn1` gave a pKa of 5.56. `N#CCN` gave a pKa of 5.37. With `CNC(C)Cc1ccccc1` (stereo unspecified) the pKa was 9.87. `CN1CCCCN1C` gave a pKa of 6.66. For `FC(F)(F)c1cc(-c2ccccc2)nnc1NCC[NH+]1CCOCC1`, the pKa was 1.44. Work on `CNc1c(C)cccc1C` yielded a pKa of 6.12. In the case of `NCCC(=O)c1ccccc1`, the pKa is reported as 8.3. `NC(=O)Cc1ccccn1` showed a pKa of 4.34. `COc1c(C)ncc(CO)c1C=O` gave a pKa of 4.75. For `CCOC(=O)N1CCN(C)CC1`, the pKa was 7.31. Work on `C=CC(CC(C)(C)CC(C)(C)C)c1ccc2cccnc2c1O` (stereo unspecified) yielded a pKa of 4.51. In the case of `CSc1nc2cncnc2n1C`, the pKa is reported as 2.98. `CNCC#N` gave a pKa of 5.26. Work on `Nc1ccc2nc3ccc(N)cc3cc2c1` yielded a pKa of 6.18. Work on `CN(C)CCN(C)C` yielded a pKa of 9.15. `CCOc1ccnc([O-])n1` showed a pKa of 10.7. For `Nc1cccnc1`, the pKa was 6.08. Compound `COc1ccc(-c2ncc(-c3ccc(N)cc3)o2)cc1` has a pKa of 3.71. `Cc1ccc(NCO)cc1` showed a pKa of 3.42. For `CCN1CC(O[Si](C)(C)C)C1`, the pKa was 8.68. For `CC(C)NC[Si](C)(C)C`, the pKa was 10.8. `N#Cc1ccncc1` showed a pKa of 1.91. `CC1CCN(c2cc[nH+]cc2)CC1` gave a pKa of -0.56. `Cc1ccncc1C` gave a pKa of 6.53. Compound `Cc1ccccc1NC(=O)CN1CCCCC1` has a pKa of 7.7. Compound `CCCCCCCCCCCCCNCCCCCCCCCCCCC` has a pKa of 11. `CCOP(=O)(CN1CCOCC1)OCC` gave a pKa of 4. Compound `Nc1ccc(C(=O)[O-])c2ncccc12` has a pKa of 8.46. Compound `Nc1cn[nH]c1` has a pKa of 5.57. `Cc1cc([O-])[nH+]c([S-])n1` showed a pKa of 7.73. `Cc1cc(-c2ncc[nH]2)nn1C` gave a pKa of 6.2. Compound `Cc1ccc(C(=O)S)cc1` has a pKa of -5.19. Compound `CC(C)(N)c1ccccc1` has a pKa of 10.4. For `NCCCCc1cccnc1`, the pKa was 10.2. Compound `C=CCN` has a pKa of 9.74. Compound `Nc1ccccc1B(O)O` has a pKa of 4.58. Compound `CC[NH+](CC)CCNc1ccnc2ccccc12` has a pKa of 8. In the case of `Cc1cc(Br)ccc1N`, the pKa is reported as 3.58. Compound `Cn1cnc2ncncc21` has a pKa of 2.29. Work on `C#CCN1CCOCC1` yielded a pKa of 5.54. `O=C(/C=C1/C=CC=CN1)c1ccccc1` showed a pKa of 6.08. Work on `NCC=C(Cl)Cl` yielded a pKa of 9.3. With `CSc1ccc(N)cc1[N+](=O)[O-]` the pKa was 2.47. For `c1ccc(CNC(CC2CCCCC2)CC2CCCCC2)cc1`, the pKa was 7.7. For `NC(=O)CCc1cccnc1`, the pKa was 5.21. Work on `CC1(C)CC2CCN1C(=O)C2` (stereo unspecified) yielded a pKa of 5.33. With `C#CCNCC#C` the pKa was 6.08. Compound `CCCCCCCCCCN(CC(C)O)CC(C)O` (stereo unspecified) has a pKa of 7.6. `O=[N+]([O-])c1cc(-c2ccccc2)nnc1NCCN1CCOCC1` gave a pKa of 6.56. For `NC1=[NH+][C@@H](CC(=O)[O-])C(=O)N1CCCC(N)C(=O)[O-]` (stereo partly specified), the pKa was 8.1. Work on `Cc1cccc(N(C)C)c1` yielded a pKa of 5.32. Compound `O=C([O-])C[NH+](CC(=O)[O-])Cc1nc2ccccc2[nH]1` has a pKa of 3.95. `c1ccc(-c2ncc[nH]2)cc1` showed a pKa of 6.39. `Nc1ccc2cccnc2c1` gave a pKa of 6.65. In the case of `Nc1ncc2[nH]c(-c3ccccc3)nc2n1`, the pKa is reported as 3.98. For `CCN1CCCCC1C` (stereo unspecified), the pKa was 10.7. For `O=C(CN1CCCCC1)Nc1ccccc1`, the pKa was 7.85. Work on `Cn1cnc2nc(N)nc([O-])c21` yielded a pKa of 8.43. `NC/C=C/C(=O)[O-]` showed a pKa of 9.46. For `CN(C)/C=N/c1ccc([N+](=O)[O-])cc1`, the pKa was 6.71. In the case of `COc1ccc(OC)c2c1nc(C)n2C`, the pKa is reported as 6.12. `O=C([O-])c1ccc2nc3ccccc3cc2c1` gave a pKa of 5.22. For `CNC(=O)c1ccncc1`, the pKa was 3.8. `COc1cccc(OC)c1-c1nc2cnccc2[nH]1` gave a pKa of 6.34. In the case of `CN1C[C@H](C(=O)[O-])C[C@@H]2c3cccc4[nH]cc(c34)C[C@@H]21`, the pKa is reported as 8.57. In the case of `CCOCCNc1ccccc1`, the pKa is reported as 4.04. `CCCCCCCCCCCCCCN` showed a pKa of 10.6. For `c1cncc(-c2[nH]c3ccccc3[nH+]2)c1`, the pKa was 1.56. `N=C(c1ccccc1)c1cccc(O)c1` gave a pKa of 6.92. `CCN(CC)CC(O)C[NH+](CC)CC` gave a pKa of 7.74. For `Nc1ccc(-c2ccc([NH3+])cc2)cc1`, the pKa was 3.66. In the case of `Cc1c[nH+]c(C)cn1`, the pKa is reported as -4.42. With `c1cnc2ccc3[nH+]cccc3c2c1` the pKa was 2.4. For `CCCNN`, the pKa was 7.92. Work on `CN(C)Cc1cc(/N=N/c2ccccc2)ccc1[O-]` yielded a pKa of 10.2. `CN(CCN)CC[NH+](C)C` gave a pKa of 9.23. Work on `O=C([O-])[C@]12CNCC[C@H]1O2` yielded a pKa of 9.14. With `C[C@H](N)[C@@H](C)N` the pKa was 9.88. `C[Si](C)(C)CNc1ccccc1` gave a pKa of 5.3. With `COc1cc(C[NH3+])c(C)cc1N` the pKa was 4.26. `Cc1cscn1` gave a pKa of 3.14. `Cc1cc(C)cc(N)c1` showed a pKa of 4.81. Compound `NCCCNCCCN` has a pKa of 10.7.
